{"source": "patent US20230270692A1", "about": "“COMPOUNDS FOR CHRONIC DISORDERS” (Pillai Universal LLC, priority 2020, published 2023)", "key": {"PANC-1 xenograft": {"system": "PANC-1 xenograft", "assay": "PANC-1 xenograft mouse model", "format": "in vivo", "procedure": "Study Design: A PANC-1 xenograft mouse model was carried out according to the experimental design described in FIG. 21A. Tumor volume was monitored over a 30-day period upon administration of PBS alone (vehicle control), 25 mg/kg gemcitabine, and 10 mg/kg Compound I."}, "SARS-CoV-2 [1]": {"system": "SARS-CoV-2", "format": "in vivo", "details": "PO 250 mg B.I.D. over 7 days"}, "[2]": {"assay": "Cytotoxicity in Calu-3 cells", "format": "cell-based", "details": "human, Calu-3 lung epithelial cells, read-out: 50% cytotoxic concentration (CC50)", "procedure": "The antiviral activity of Compound I was assessed against SARS-CoV-2 in Calu-3 cultures. […] To determine if Compound I could inhibit replication, we first evaluated antiviral activity and cytotoxicity in the continuous human lung epithelial cell line Calu-3 cells."}, "[3]": {"system": "cytokines and chemokines in the lungs", "assay": "Xenograft stage 4 metastasized breast cancer animal model, lung cytokines and pathology", "format": "in vivo", "from_the_text": "In a xenograft stage 4 metastasized breast cancer animal model, Compound I decreased production of cytokines (tumor necrosis factor alpha [TNF-α] and interleukin-6 [IL6]) and chemokines (CXCL10, CCL2, CCL3, CCL5), and were correlated with migration of Natural Killer cells and macrophages and observed in the lungs."}, "[4]": {"system": "panel of human normal cell lines", "assay": "MTT cytotoxicity of anticancer agents on normal cell lines, alone and with Compound I", "details": "combination treatment", "procedure": "The cytotoxicity of anticancer agents was studied using a panel of human normal cell lines alone and with the combination of Compound I of the present invention. The cytotoxicity effect was determined by MTT assay. The following cell lines were used: Human epidermal keratinocytes cells (HaCaT), Human dermal fibroblast (HDF), Human bone marrow mesenchymal stem cells (HBMSCs), Human normal hepatocytes cells (THLE2), Human cardiac cells (AC-16), Human intestinal epithelial cells (HIEC-6), Human neuronal cells (SHSY-5Y), Human vascular Endothelial cells (HuVECs), Human lung epithelial cells (Calu-3), Human lung fibroblast (MRC 5).\nNext, the cells were treated with anticancer agents in combination with Compound I of the present invention."}, "HUMSCs": {"system": "HUMSCs", "assay": "Neuronal differentiation of human umbilical cord stem cells", "format": "cell-based", "procedure": "After treatment at 72 h, the ratio of neuron-like cells reached high, with the cell bodies contracted and the protuberances lengthened further. The MSCs retained this morphology for the duration of the induction."}, "[5]": {"system": "cytotoxic cells, macrophages, NK cell and DC", "assay": "Immune response", "from_the_text": "Compound I has the ability to activate CD4+ helper […] and generates an immune response in the body to protect against viral infections, Specifically, Compound I increases the number and activity of cytotoxic cells and promotes the activation of macrophages NK cell and DC which facilitate APC to CD4+ and CD8+ through capture, internalization, processing and presentation of antigens via MHC class I and II molecules."}, "lung cancer stem cells": {"system": "lung cancer stem cells", "assay": "Targeting lung cancer stem cells", "from_the_text": "Compound I is orally bioavailable, multi-tyrosine-kinase inhibitor with 120 target proteins that induces apoptosis and suppresses the invasiveness of lung cancer stem cells with no toxicity to normal cells. There were no signs of discomfort or any cardiovascular or respiratory disorders observed in animals after the administration throughout the study period."}, "SARS-CoV-2 [6]": {"system": "SARS-CoV-2", "assay": "microbe, parasite or virus in culture", "format": "cell-based"}, "cancer stem cells": {"system": "cancer stem cells", "assay": "Cancer stem cell marker expression", "format": "cell-based", "from_the_text": "CSCs have significant impact on the tumor progression, drug resistance, recurrence and metastasis in different types of malignancies. Conventional cancer chemotherapy often fails as most anti-cancer drugs are not effective against drug-resistant CSCs. These surviving CSCs lead to relapse and metastasis. Most studies report that conventional therapeutic agents have limited access to the CSCs due to their hypoxic microenvironment and distant location from the vasculature that retards the efficacy of anti-CSC drugs (FIG. 14). However, the disclosed compounds may overcome this limitation and may penetrate into a deeper location and destroy CSCs. Accordingly, in embodiments, the present invention provides a method of inhibiting cancer stem cell survival and/or self-renewal comprising administering to a cancer stem cell an effective amount of a compound disclosed herein, e.g., Compound I (FIG. 13).\nThe compounds of the disclosure inhibited the expression of the genes in the follow cancers (FIG. 18): • Breast: CD44+CD24−/low Lineage−, ALDH-1high • Liver: CD133+, CD49f+, CD90+ • Colon: CD133+, CD44+, CD166+, EpCAM+, CD24+ • Pancreatic: CD133+, CD44+, EpCAM+, CD24+ • Leukemia: CD34+CD38− • Lungs: CD133+, ABCG2^High • Leukemia: CD34+, CD38−, HLA−, DR−, CD71−, CD90−, CD117−, CD123+\nReduction of stem cell surface marker expressions are seen within 1 hour and up to a maximum of […]. […]"}, "[7]": {"system": "Pancreatic adenocarcinoma cells (PANC)", "assay": "MTT cell viability of pancreatic cancer cells", "format": "cell-based, Human", "procedure": "The synthesized compounds of Formula 1-4 were evaluated for cell proliferation, apoptosis, cell cycle arrest, the generation of reactive oxygen species and calcium were measured using MTT assay and flow cytometry, respectively. The expression of apoptosis- and proliferation-related proteins was determined by western blotting. The effect of molecules on apoptosis-related mRNA expression in cancer cells was detected by RT-PCR.\nChanges in cell morphology were detected by the presence of cell membrane blebbing, chromatin condensation, and formation of apoptotic bodies (FIG. 10A)."}, "SARS-CoV-2 [8]": {"system": "SARS-CoV-2", "assay": "Antiviral activity against SARS-CoV-2 in Calu-3 cells", "format": "cell-based"}, "SARS-CoV-2 [9]": {"system": "SARS-CoV-2", "format": "cell-based"}, "[10]": {"system": "xenograft nude mice models (triple-negative breast cancer, pancreatic, liver, colon cancer)", "assay": "In vivo metastasis / stage IV tumor studies in xenograft nude mice versus standard drugs", "details": "mice, after 9 months since administration"}}, "note": "Read-outs that look alike come from different tables or passages of the source."}
{"smiles": "COc1cc(/C=C/C(=O)/C=C/C=C/c2cc(OC)c(O)c(OC)c2)cc(OC)c1", "note": "[Compound I]", "values": [{"measurement": "imaging studies", "setting": "PANC-1 xenograft; 10 mg/kg", "value": "no detectable tumor"}, {"measurement": "tumor volume", "setting": "PANC-1 xenograft; day 5 to day 30, 25 mg/kg gemcitabine, 10 mg/kg Compound I", "value": "decrease"}, {"measurement": "survival", "setting": "PANC-1 xenograft; mouse, in vivo", "value": "improved survival"}, {"measurement": "time to decrease of overactivated cytokine-secreting immune cells", "setting": "SARS-CoV-2 [1]", "value": "3 to 5", "unit": "days"}, {"measurement": "time to improved pulmonary function and symptoms", "setting": "SARS-CoV-2 [1]", "value": "4 to 5", "unit": "days"}, {"measurement": "CC50", "setting": "[2]", "value": "> 100000", "unit": "nM"}, {"measurement": "lung histopathology", "setting": "[3]; by day 7", "value": "normal lung pathology without any pneumonitis observed"}, {"measurement": "production of cytokines (TNF-α, IL6) and chemokines (CXCL10, CCL2, CCL3, CCL5)", "setting": "[3]; in vivo", "value": "decreased"}, {"measurement": "effect on toxicity induced by anticancer agents in normal cells", "setting": "[4]", "value": "reduces the toxic effect induced by anticancer agents"}, {"measurement": "Neuronal cell type formation", "setting": "HUMSCs", "value": "induced"}, {"measurement": "number and activity of cytotoxic cells", "setting": "[5]", "value": "increases"}, {"measurement": "effect on lung cancer stem cells", "setting": "lung cancer stem cells", "value": "induces apoptosis and inhibits metastasis without harming the normal cells"}, {"measurement": "reduction in viral RNA in supernatant and cell pellets", "setting": "SARS-CoV-2 [6]; 1 μM, at 48 h, compared to control samples", "value": 99, "unit": "%"}, {"measurement": "viral RNA in supernatant and cell pellets", "setting": "SARS-CoV-2 [6]; 11 μM (figure legend)", "value": "reduction in viral RNA"}, {"measurement": "IC50", "setting": "SARS-CoV-2 [6]; Severe acute respiratory syndrome coronavirus 2, Vero cells, MOI 0.1, read-out: IC50 (inhibition of virus yield)", "value": 1000, "unit": "nM"}, {"measurement": "viral load measured by nucleoprotein expression", "setting": "SARS-CoV-2 [6]; Vero cells, 48 h p.i., immunofluorescence", "value": "substantially reduced"}, {"measurement": "reduction in cell-associated viral RNA", "setting": "SARS-CoV-2 [6]; at 24 h", "value": 99, "unit": "%"}, {"measurement": "reduction in viral RNA present in the supernatant", "setting": "SARS-CoV-2 [6]; at 24 h, compared to vehicle DMSO", "value": 100, "unit": "%"}, {"measurement": "viral material", "setting": "SARS-CoV-2 [6]; by 36 h", "value": "effective loss of essentially all viral material"}, {"measurement": "cancer stem cell markers / gene expression", "setting": "cancer stem cells", "value": "inhibition"}, {"measurement": "cell viability", "setting": "[7]; 24 and 48 h, 1-100 μg/mL", "value": "decreased significantly in time- and dose-dependent manners"}, {"measurement": "cytotoxicity at 10 µg/mL", "setting": "[7]; Homo sapiens, Pancreatic cancer cell, read-out: decrease in viable cells", "value": "~65.5", "unit": "%"}, {"measurement": "IC50", "setting": "[7]; Homo sapiens, Pancreatic cancer cell, PANC cells, after 24 hours of exposure", "value": "5.74 ± 0.02", "unit": "µg/mL"}, {"measurement": "inhibition of intracellular SARS-CoV-2 RNA levels", "setting": "SARS-CoV-2 [8]; Calu-3, 24 h p.i., RT-PCR", "value": "more than 95 % of control"}, {"measurement": "IC50", "setting": "SARS-CoV-2 [8]; Severe acute respiratory syndrome coronavirus 2, Calu-3, read-out: average half-maximum effective concentration (IC50)", "value": 1500, "unit": "nM"}, {"measurement": "IC50", "setting": "SARS-CoV-2 [8]; Severe acute respiratory syndrome coronavirus 2, Calu-3, read-out: calculated IC50 (viral genomic RNA in supernatants, qRT-PCR)", "value": 5000, "unit": "nM"}, {"measurement": "IC50", "setting": "SARS-CoV-2 [8]; Severe acute respiratory syndrome coronavirus 2, Calu-3 cultures, 0.1-5 μM, read-out: average IC50 (reduction in replication)", "value": 10, "unit": "nM"}, {"measurement": "IC50", "setting": "SARS-CoV-2 [8]; Severe acute respiratory syndrome coronavirus 2, calu-3 cell line, replication, read-out: IC 50", "value": 10000, "unit": "nM"}, {"measurement": "virus titer of treated cells", "setting": "SARS-CoV-2 [8]; calu-3, 10 μM Compound I treated cells", "value": "≤ 102", "unit": "TCID50/ml"}, {"measurement": "inhibition", "setting": "SARS-CoV-2 [9]; 1 μM added after 10 h post infection", "value": "no inhibition"}, {"measurement": "inhibition", "setting": "SARS-CoV-2 [9]; 1 μM added between 6 and 8 h post infection", "value": "Less inhibition"}, {"measurement": "inhibition", "setting": "SARS-CoV-2 [9]; 1 μM added between 2 h pre-infection and 2-h post infection", "value": "Maximal inhibition"}, {"measurement": "viral RNA levels (qPCR)", "setting": "SARS-CoV-2 [9]; increasing concentrations", "value": "decreased"}, {"measurement": "relapse of disease", "setting": "[10]", "value": "no relapse of disease"}]}
